Data on six compounds can be found in patent publication US6815459B2, “Seleno compounds containing nitrone moiety, their preparation and their therapeutic uses” (Sam-Sung Electronics Co., Ltd., priority 2001, dated 2004).

Each structure is given as a SMILES string. Converted amounts (≈) assume the structure as drawn. Read-outs that look alike come from different tables or passages of the source.

Data set [1] concerns mice. Conditions: oral administration; cited from earlier work.
Data set [2] can be described thus: Determination of water solubility (UV, saturated solution). Format: physicochemical. As to conditions: 10 mM phosphate buffer (pH 7.4), stirred 3 hours, filtered; for solubility at 3 h: read-out: C′ (μM) = A′ (C/A), concentration of the saturated solution (water solubility).
Procedure: With a Beckman DUI® 7500 Spectrophotometer, the UV absorption maximum of each compound was determined by eventually diluting the solution with MeOH as necessary.
A saturated solution of each compound was then prepared by stirring magnetically a small volume of 10 mM phosphate buffer (pH 7.4) in the presence of an excess test compound for 3 hours. The obtained saturated solution was filtered in order to remove solid compound through a Gelman 0.45 m filter and scanned by UV at the wavelength of the absorption maximum previously determined.
The subject of data set [3] is ischemic neuronal degeneration in hippocampus. The data set can be described thus: Protection of cell damage by ischemia (in vivo). The arrangement: species or system Mongolian gerbils (Meriones unguiculatus). Conditions: for Protective effects against ischemic neuronal degeneration: gerbil, 60 mg/kg P.O. 30 minutes after ischemic injury (post-treated), 4 days reperfusion. From the text:
Male Mongolian gerbils (Meriones unguiculatus) weighing 80-88 g were used in the present study. […] A midline ventral incision was made in the neck. Both common carotid arteries were isolated, freed of nerve fibers, and occluded using nontraumatic aneurysm clips. Complete interruption of blood flow was confirmed by observing the central artery in eyeballs using ophthalmoscope. After five minutes of occlusion, the aneurysm clips were removed from both common carotid arteries. Restoration of blood flow (reperfusion) was observed directly under the microscope. Sham-operated controls were subjected to the same surgical procedures except that common carotid arteries were not occluded. Body temperature was monitored and maintained at 37° C.±0.5° C. during surgery and during the immediate postoperative period until the animals recovered fully from anesthesia. At the designated reperfusion time (4 days), operated animals and sham animals were killed. Animals were perfused transcardially with phosphate-buffered saline (PBS, pH 7.4) followed by 4% paraformaldehyde in 0.1 M phosphate buffer (pH 7.4) at 4 days (n=7) after surgery. The brains were removed, and postfixed in the same fixative for 4 hours. The brain tissues were cryoprotected by infiltration with 30% sucrose overnight. Cornoy fixed specimens were cut into 30 sections on a cryostat, were sequentially stained by Cresyl violet dye. Images of staining in the hippocampus of each animal were captured with an […]. […] All data obtained from the quantitative data were analyzed using one-way ANOVA to determine statistical significance. Bonferroni's test was used for post-hoc comparisons. P values below 0.05 or 0.01 were considered statistically significant.

Data set [4] relates to rats. Conditions: cited from earlier work.
A short description of data set [5]: Inhibition of lipid peroxidation of liposome (TBA method). The format is biochemical. As to conditions: histidine-FeCl3/FeCl2, 37° C., 15 minutes, read-out: Inhibitor Concentration (IC50), lipid peroxidation. Here is the method:
The compounds of the present invention were tested for antioxidant effect in terms of the repression of the radical chain reaction of a multilayer liposome.
The liposome was prepared as followings: 30 mg of commercially available soybean phosphatidylcholine (PC, Sigma Chemical Co., U.S.A.) was dissolved in 1 mL of ethanol, and 200 of the ethanol/PC solution was added to 10 mL of 10 mM Tris buffer including 50 mM NaCl (pH 7.0) with stirring.
The ability of a compound to inhibit oxidation of the liposome was evaluated as followings: To 400 of the liposomes were added the test compound (in buffer or ethanol) and histidine-FeCl3 (167:33 μM final). Oxidation was initiated by the addition of FeCl2 (33 μM final prepared in nitrogen purged water). The mixtures were shaken at 37° C. for 15 minutes. […]. The aliquots were heated to 100° C. for 20 minutes. After ice cooling, 1 mL of chloroform was added to 1 mL of supernatant from tubes and tubes were centrifuged. The absorbances of the resulting supernatant were measured at 532 nm (see: Table 2).

Data set [6] is described as follows: Glutathione peroxidase like activity (NADPH-glutathione reductase coupled system). Format: biochemical. Conditions: 50 μM compound; for Rate A340/min(30˜300 sec) / Rate/0.00622 (nmol NADPH/min/mL): 25° C.; for % Ebselen (glutathione peroxidase activity): relative to Ebselen. Here is the method:
Glutathione peroxidase like activity was determined by the reduction of GSSG formed via the NADPH-glutathione reductase system as an indicator system.
To 350 of 50 mM Tris-HCl(pH 7.6) containing 5 mM of EDTA (assay buffer) are added in the following order:
1) 350 of assay buffer containing 6.4 mM of reduced glutathione (GSH), 640 μM of […] (NADPH), and 1.6 unit/mL of glutathione disulfide reductase (GR)
2) 70 of 800 μM of the test compound which was dissolved in DMSO (i.e., each compound was tested at a final concentration of 50 μM)
3) 350 of 0.007% tert-butyl hydroperoxide which was made by 1/10,000 dilution of tert-butyl hydroperoxide with DDW.
The final reaction volume is 1120.
The reaction was carried out at 25° C. […] The said activity or initial enzymatic rate is proportional to the slope of the variation of absorbance with time.
The catalytic activity for oxygen reduction of the compounds tested corresponds to the rate of consumption of NADPH.
They are expressed in n-moles of NADPH consumed per minute.

For data set [7], the system named is rats. Description: Acute toxicity LD50 in rats. Format: in vivo.

A word on the LD50: it is the dose at which mortality reaches 50%.

As to `O=c1c2ccccc2[se]n1-c1ccccc1` [Ebselen, reference compound], the 50% lethal dose (LD50) in data set [1] is recorded as ≥ 6,810 mg/kg; in data set [4] (intraperitoneal administration) it was 580 mg/kg; in data set [4] (oral administration), ≥ 6,810 mg/kg. In addition, the “C′ (g/L = mg/mL), concentration of the saturated solution (water solubility)” value in data set [2] came to 0.001265 g/L = mg/mL. In addition, the solubility at 3 h in data set [2] (aqueous buffer, thermodynamic from solid) came to 4.62 µM (≈ 1.27 µg/mL). For the same compound, the “Protective effects against ischemic neuronal degeneration” value in data set [3] is recorded as 59%.

In the case of `CC(C)(C)[N+]([O-])=Cc1ccccc1S(=O)(=O)O` [S-PBN, reference compound], in data set [5], the IC50 worked out at 25000 µM.

In the case of `CC(C)/[N+]([O-])=C\c1cccc(-n2[se]c3ccccc3c2=O)c1` [Example 2, 2-[3-(N-isopropyl)nitronyl]phenyl-1,2-benzisoselenazol-3(2H)-one], in data set [5], the IC50 turned out to be 111 µM. In addition, in data set [6], the “Rate A340/min(30˜300 sec)” value is −0.125 A340/min, the “Rate/0.00622 (nmol NADPH/min/mL)” value was found to be 20.10 nmol NADPH/min/mL and the “% Ebselen (glutathione peroxidase activity)” value (“% Ebselen” for short) came out at 105.96%.

`CC(C)/[N+]([O-])=C/c1ccc(-n2[se]c3ccccc3c2=O)cc1` [Example 1, 2-[4-(N-isopropyl)nitronyl]phenyl-1,2-benzisoselenazol-3(2H)-one]: the IC50 in data set [5] is 81.1 µM. Moreover, in data set [6], the “Rate A340/min(30˜300 sec)” value is reported as −0.141 A340/min, the “Rate/0.00622 (nmol NADPH/min/mL)” value is recorded as 22.67 nmol NADPH/min/mL and the “% Ebselen” value stood at 119.50%.

For `CC(C)[N+]([O-])=Cc1csc(-n2[se]c3ccccc3c2=O)n1` [Example 5, 2-[4-(N-isopropyl)nitronyl]thiazol-2-yl-1,2-benzisoselenazol-3(2H)-one], the IC50 in data set [5] came to 1.2 µM. Besides, the median lethal dose (LD50) in data set [7] (intraperitoneal administration in rats) is given as at least 800 mg/kg. The LD50 in data set [7] (oral administration in rats) is ≥ 7,000 mg/kg. Moreover, in data set [6], the “Rate A340/min(30˜300 sec)” value is reported as −0.125 A340/min, the “Rate/0.00622 (nmol NADPH/min/mL)” value turned out to be 20.13 nmol NADPH/min/mL and the “% Ebselen” value was 106.11%. Further, in data set [2], the “C′ (g/L = mg/mL), concentration of the saturated solution (water solubility)” value is 0.0414 g/L = mg/mL and the solubility at 3 h is given as 113.029 µM (≈ 41.4 µg/mL). Besides, in data set [3] (gerbil ischemia, 60 mg/kg P.O.), the “Neuroprotective effects compared with Ebselen” value was “more neuroprotective effects against ischemic neuronal degeneration than Ebselen”. Further, the “Protective effects against ischemic neuronal degeneration” value in data set [3] is given as 61%.

On to `CC(C)/[N+]([O-])=C\c1ccc(Cn2[se]c3ccccc3c2=O)cc1` [Example 7, 2-[4-(N-isopropyl)nitronyl]benzyl-1,2-benzisoselenazol-3(2H)-one], for which the IC50 in data set [5] is 246 µM. Besides, in data set [6], the “Rate A340/min(30˜300 sec)” value is reported as −0.084 A340/min, the “Rate/0.00622 (nmol NADPH/min/mL)” value turned out to be 13.50 nmol NADPH/min/mL and the “% Ebselen” value came to 71.17%.
